Values of other authors, collected in patent US7834038B2, “Methods for preparing nonpeptidic oligomers from amino acids” (New York University, priority 2005, dated 2010).
Entries after “also recorded” stand apart in the source; their conditions may differ.

Molecular target: HIV-1 protease (Human immunodeficiency virus type 1 group M subtype B, UniProt P04585)
Conditions: known inhibitors, statement in words

O=C(N[C@H]1c2ccccc2C[C@H]1O)[C@H](Cc1ccccc1)CC(O)C[C@@H](Cc1ccccc1)C(=O)N[C@H]1c2ccccc2C[C@H]1O [L-700,417]
inhibition of HIV-1 protease: very high affinities

CC(C)[C@H](NC(=O)OCc1ccccc1)C(=O)N[C@@H](Cc1ccccc1)[C@@H](O)[C@H](Cc1ccccc1)NC(=O)[C@H](NC(=O)OCc1ccccc1)C(C)C [A-74704]
inhibition of HIV-1 protease: very high affinities; also recorded: powerful inhibitor
